In ChEMBL document CHEMBL3301361, “Experimental in vitro DMPK and physicochemical data on a set of publicly disclosed compounds”:
Converted amounts (≈) assume the structure as drawn.

Columns and labels:
physchem [1] = conditions: octan-1-ol/water
in vitro [2] = conditions: human, plasma
in vitro [3] = conditions: SD, HW or BN, rat, plasma
in vitro [4] = conditions: human
in vitro [5] = conditions: hepatocytes
in vitro [6] = conditions: human, hepatocytes
physchem [7] = conditions: pH 7.4 buffer

Row | SMILES | fraction unbound at 5 h (in vitro [3]) | hepatocyte CLint (in vitro [5]) | hepatocyte CLint (in vitro [6]) | also measured
1 | C[C@@H]1CN(Cc2nnc(-c3cc(-c4cccc5[nH]ccc45)cc4[nH]ncc34)o2)C[C@H](C)O1 | 0.0313 | 55 µL/min/1e6 cells |  | logD (physchem [1]; pH 7.4, LogD7.4): 4.01; fraction unbound at 5 h (in vitro [2]; PPB): 0.0191; microsomal CLint (in vitro [4]; liver microsomes): 107 µL/min/mg
2 | CC(C)c1nc2ccccc2n1-c1nc(N2CCOCC2)c2nc(OC3CN(C4CCS(=O)(=O)CC4)C3)n(C)c2n1 | 0.22 | 10 µL/min/1e6 cells |  | logD (physchem [1]; pH 7.4, LogD7.4): 2.9; fraction unbound at 5 h (in vitro [2]; PPB): 0.22; microsomal CLint (in vitro [4]; microsomes): 20.4 µL/min/mg
3 | CS(=O)(=O)C1(c2cc(N3CCOCC3)nc(-c3cccc4[nH]ncc34)n2)CC1 |  |  | < 3 µL/min/1e6 cells | 
4 | Cc1c(Cl)cccc1S(=O)(=O)N1CCC[C@H](C(=O)NC2CCCCC2)C1 |  |  | 18.6 µL/min/1e6 cells | 
5 | C[C@H]1COCCN1c1nc(N2CCOC[C@@H]2C)c2ccc(-c3ccc4nc[nH]c(=O)c4c3)nc2n1 |  |  | > 150 µL/min/1e6 cells | 
6 | CC(C)(C)NC(=O)NCCN1CCC(CO)(CNC(=O)c2cc(Cl)cc(Cl)c2)CC1 |  |  | 7.08 µL/min/1e6 cells | 
7 | Cc1ccc(-c2cc(C(F)(F)F)nn2-c2ccc(S(C)(=O)=O)cc2)cc1 |  |  | 17.4 µL/min/1e6 cells | 
8 | O=C(O)c1ccc(-n2nc(C(F)(F)F)cc2-c2ccc(C(F)(F)F)cc2)cc1 |  |  | 9.33 µL/min/1e6 cells | 
9 | COc1ccc(CNC(=O)Nc2ncc([N+](=O)[O-])s2)cc1 | 0.0108 | 91 µL/min/1e6 cells |  | logD (physchem [1]; pH 7.4, LogD7.4): 2.9; fraction unbound at 5 h (in vitro [2]; PPB): 0.0032; microsomal CLint (in vitro [4]; liver microsomes): 56 µL/min/mg
10 | NS(=O)(=O)c1ccc(-n2nc(C(F)(F)F)cc2-c2ccc(C(F)(F)F)cc2)cc1 |  |  | 18.2 µL/min/1e6 cells | 
11 | COc1ccc(/C=C2\NC(=O)NC2=O)cc1 |  |  | 39.8 µL/min/1e6 cells | 
12 | Clc1ccc(COc2ccc(Br)cc2CN2CCOCC2)cc1 |  |  | 55 µL/min/1e6 cells | 
13 | Cc1ccc(-c2cc(C(F)(F)F)nn2-c2ccc(C(=O)O)cc2)cc1 |  |  | 10.7 µL/min/1e6 cells | 
14 | Cc1ccc(-c2cc(C(F)(F)F)nn2-c2ccc([S+](C)[O-])cc2)cc1 (centres undefined) |  |  | 14.8 µL/min/1e6 cells | 
15 | COc1ccccc1SC[C@@H](C)CN[C@@H]1COc2ccccc2SC1 |  |  | 51.3 µL/min/1e6 cells | 
16 | O=C(NCC1(O)CCCCCC1)c1cc(-c2ccccc2C(=O)O)ccc1Cl | 0.0909 | 12.5 µL/min/1e6 cells |  | logD (physchem [1]; pH 7.4, LogD7.4): -0.34; fraction unbound at 5 h (in vitro [2]; PPB): 0.089; microsomal CLint (in vitro [4]; liver microsomes): < 3 µL/min/mg

Row | SMILES | fraction unbound at 5 h (in vitro [3]) | hepatocyte CLint (in vitro [5]) | hepatocyte CLint (in vitro [6]) | also measured
17 | Cc1ccc2nc(C(=O)O)[nH]c2c1 |  |  | 9.77 µL/min/1e6 cells | 
18 | C[C@]12CC[C@H](O)CC1=CCC1C2CC[C@]2(C)C(n3cnc4ccccc43)=CCC12 (some centres undefined) |  |  | 34.7 µL/min/1e6 cells | 
19 | Nc1ccc2c(c1)Cc1cc(N)ccc1-2 |  |  | 61.7 µL/min/1e6 cells | 
20 | C[C@]12CC[C@H](O)CC1=CC[C@@H]1[C@@H]2CC[C@]2(C)C(c3cccnc3)=CC[C@@H]12 [ABIRATERONE] |  |  | 55 µL/min/1e6 cells | 
21 | Cc1c(N(C)C)c(=O)n(-c2ccccc2)n1C [AMINOPYRINE] |  |  | 3.47 µL/min/1e6 cells | 
22 | COc1ccc([C@]2(C#N)CC[C@@H](C(=O)O)CC2)cc1OC1CCCC1 [CILOMILAST] | 0.0606 | 28 µL/min/1e6 cells |  | logD (physchem [1]; pH 7.4, LogD7.4): 0.76; fraction unbound at 5 h (in vitro [2]; PPB): 0.0116; microsomal CLint (in vitro [4]; microsomes): 13 µL/min/mg
23 | O=C1Nc2ccc(Cl)cc2[C@@](C#CC2CC2)(C(F)(F)F)O1 [EFAVIRENZ] |  |  | 8.51 µL/min/1e6 cells | 
24 | CCOc1ccc2nc3ccc(=O)cc-3oc2c1 [ETHOXYRESORUFIN] |  |  | > 150 µL/min/1e6 cells | 
25 | Cc1c[nH]c(-c2cnc(NCCNc3ccc(C#N)cn3)nc2-c2ccc(Cl)cc2Cl)n1 [LADUVIGLUSIB] | 0.0447 | 108 µL/min/1e6 cells |  | logD (physchem [1]; pH 7.4, LogD7.4): 3.86; solubility thermodynamic (physchem [7]): 0.4 µM (≈ 0.186 µg/mL); fraction unbound at 5 h (in vitro [2]; PPB): 0.0187; microsomal CLint (in vitro [4]; microsomes): 96 µL/min/mg
26 | CNCCC=C1c2ccccc2CCc2ccccc21 [NORTRIPTYLINE] | 0.132 | 144 µL/min/1e6 cells |  | logD (physchem [1]; pH 7.4, LogD7.4): 1.58; fraction unbound at 5 h (in vitro [2]; PPB): 0.132; microsomal CLint (in vitro [4]; microsomes): < 3 µL/min/mg
27 | COc1ccc(CC(C)(C)NC[C@H](O)c2cc(O)cc3c2OCC(=O)N3)cc1 [OLODATEROL] | 0.443 | 14 µL/min/1e6 cells |  | logD (physchem [1]; pH 7.4, LogD7.4): 0.79; fraction unbound at 5 h (in vitro [2]; PPB): 0.409; microsomal CLint (in vitro [4]; liver microsomes): 14 µL/min/mg
28 | CC(C)(Cc1cccc(CC(=O)NCc2cccc(-c3ccc(O)cc3)c2)c1)NC[C@H](O)c1ccc(O)c(NS(C)(=O)=O)c1 [PF-00610355] | 0.0818 | 37 µL/min/1e6 cells |  | logD (physchem [1]; pH 7.4, LogD7.4): 1.91; solubility thermodynamic (physchem [7]): 57.5 µM (≈ 35.5 µg/mL); fraction unbound at 5 h (in vitro [2]; PPB): 0.0053; microsomal CLint (in vitro [4]; liver microsomes): 99 µL/min/mg
29 | Cc1cccc([C@H](C)c2c[nH]c(=S)[nH]2)c1C [REZATOMIDINE] | 0.19 | 25.7 µL/min/1e6 cells |  | logD (physchem [1]; pH 7.4): 2.9; fraction unbound at 5 h (in vitro [2]): 0.17; microsomal CLint (in vitro [4]; microsomes): 24.6 µL/min/mg
30 | C[C@]12CC[C@H]3[C@@H](CCC4=CC(=O)CC[C@@]43C)[C@@H]1CC[C@@H]2O [TESTOSTERONE] |  |  | > 150 µL/min/1e6 cells | 
31 | O=c1ccc2ccc(O)cc2o1 [UMBELLIFERONE] |  |  | 123 µL/min/1e6 cells | 
32 | CCCS(=O)(=O)Nc1ccc(F)c(C(=O)c2c[nH]c3ncc(-c4ccc(Cl)cc4)cc23)c1F [VEMURAFENIB] |  |  | 6.61 µL/min/1e6 cells | 
